# What was measured:
# Rattus norvegicus [1] = species: Rattus norvegicus; test: Dissociation constant was determined in rat pituitary cells.; format: cell-based; details: pituitary gland cell
# [2] = biological target: T1, Gonadotropin-releasing hormone receptor (Rattus norvegicus) (UniProt P30969); test: Inhibition of GnRH-mediated LH secretion by cultured pituitary cells; format: functional, cell-based; details: Pituitary gland cell
# T1 sequence (whole entry): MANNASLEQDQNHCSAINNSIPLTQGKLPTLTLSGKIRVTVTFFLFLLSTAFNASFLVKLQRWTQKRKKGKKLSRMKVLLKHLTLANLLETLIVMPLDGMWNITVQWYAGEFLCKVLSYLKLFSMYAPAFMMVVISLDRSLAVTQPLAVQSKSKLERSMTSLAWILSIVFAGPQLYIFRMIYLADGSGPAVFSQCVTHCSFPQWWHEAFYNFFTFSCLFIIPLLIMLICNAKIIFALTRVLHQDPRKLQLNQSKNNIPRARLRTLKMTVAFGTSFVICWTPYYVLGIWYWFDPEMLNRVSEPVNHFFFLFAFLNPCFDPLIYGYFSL
# Rattus norvegicus [3] = species: Rattus norvegicus; test: GnRH antagonistic dose of compound for 9 rats ovulation out of total 10 using anti-ovulatory assay; format: functional
# Rattus norvegicus [4] = species: Rattus norvegicus; test: Compound was tested in vitro for its ability to inhibit histamine release from rat mast cells.; format: functional; details: read-out: ED50 (the source's name)
# Rattus norvegicus [5] = species: Rattus norvegicus; test: GnRH antagonistic dose of compound for 9 rats ovulation out of total 20 using anti-ovulatory assay; format: functional
# Rattus norvegicus [6] = species: Rattus norvegicus; test: Compound was evaluated for time course of action on LH secretion in the castrated male rat at a time interval of 43 hr at 125 microg; format: functional
# Rattus norvegicus [7] = species: Rattus norvegicus; test: Compound was evaluated for time course of action on LH secretion in the castrated male rat at a time interval of 0 hr at 125 microg; format: functional
# Rattus norvegicus [8] = species: Rattus norvegicus; test: Compound was evaluated for time course of action on LH secretion in the castrated male rat at a time interval of 19 hr at 125 microg; format: functional
# Rattus norvegicus [9] = species: Rattus norvegicus; test: Compound was evaluated for time course of action on LH secretion in the castrated male rat at a time interval of 73 hr at 125 microg; format: functional
# Rattus norvegicus [10] = species: Rattus norvegicus; test: Compound was evaluated for time course of action on LH secretion in the castrated male rat at a time interval of 19 hr at 25 microg; format: functional
# Rattus norvegicus [11] = species: Rattus norvegicus; test: Compound was evaluated for time course of action on LH secretion in the castrated male rat at a time interval of 43 hr at 25 microg; format: functional
# Rattus norvegicus [12] = species: Rattus norvegicus; test: Compound was evaluated for time course of action on LH secretion in the castrated male rat at a time interval of 1 hr at 125 microg; format: functional
# Rattus norvegicus [13] = species: Rattus norvegicus; test: Compound was evaluated for time course of action on LH secretion in the castrated male rat at a time interval of 1 hr at 25 microg; format: functional
# Rattus norvegicus [14] = species: Rattus norvegicus; test: Compound was evaluated for time course of action on LH secretion in the castrated male rat at a time interval of 49 hr at 25 microg; format: functional
# Rattus norvegicus [15] = species: Rattus norvegicus; test: Compound was evaluated for time course of action on LH secretion in the castrated male rat at a time interval of 73 hr at 25 microg; format: functional
# Rattus norvegicus [16] = species: Rattus norvegicus; test: Compound was evaluated for time course of action on LH secretion in the castrated male rat at a time interval of 0 hr at 25 microg; format: functional
# Rattus norvegicus [17] = species: Rattus norvegicus; test: Compound was evaluated for time course of action on LH secretion in the castrated male rat at a time interval of 67 hr at 25 microg; format: functional
# Rattus norvegicus [18] = species: Rattus norvegicus; test: Compound was evaluated for time course of action on LH secretion in the castrated male rat at a time interval of 49 h at 125 microg; format: functional
# Rattus norvegicus [19] = species: Rattus norvegicus; test: Compound was evaluated for time course of action on LH secretion in the castrated male rat at a time interval of 67 hr at 125 microg; format: functional
# Rattus norvegicus [20] = species: Rattus norvegicus; test: GnRH antagonistic dose of compound for 8 rats ovulation out of total 10 using anti-ovulatory assay; format: functional
# Rattus norvegicus [21] = species: Rattus norvegicus; test: GnRH antagonistic dose of compound for 5 rats ovulation out of total 10 using anti-ovulatory assay in experiment 1; format: functional
# Rattus norvegicus [22] = species: Rattus norvegicus; test: GnRH antagonistic dose of compound for 0 rats ovulation out of total 10 using anti-ovulatory assay in experiment 2; format: functional
compound,measurement,setting,value
CC(=O)N[C@H](Cc1ccc2ccccc2c1)C(=O)N[C@H](Cc1ccc(Cl)cc1)C(=O)N[C@H](Cc1cccnc1)C(=O)N[C@@H](CO)C(=O)N[C@@H](CCCN=C(N)N)C(=O)N[C@H](CCC(=O)O)C(=O)N[C@@H](CC(C)C)C(=O)N[C@@H](CCCN=C(N)N)C(=O)N1CCC[C@@H]1C(=O)N[C@H](C)C(=O)O,Kd,Rattus norvegicus [1],160 pM
same,Relative potency,[2],0.09
CC(=O)N[C@H](Cc1ccc2ccccc2c1)C(=O)N[C@H](Cc1ccc(Cl)cc1)C(=O)N[C@H](Cc1cccnc1)C(=O)N[C@@H](CO)C(=O)N[C@@H](CCCN=C(N)N)C(=O)N[C@H](CCC(=O)O)C(=O)N[C@@H](CC(C)C)C(=O)N[C@@H](CCCN=C(N)N)C(=O)N1CCC[C@H]1C(=O)N[C@H](C)C(=O)O,ED100,Rattus norvegicus [3],10 µg/kg
same,EC50,Rattus norvegicus [4],17 µg/mL
CC(=O)N[C@H](Cc1ccc2ccccc2c1)C(=O)N[C@H](Cc1ccc(Cl)cc1)C(=O)N[C@H](Cc1cccnc1)C(=O)N[C@@H](CO)C(=O)N[C@@H](CCCN=C(N)N)C(=O)N[C@H](Cc1cn(C=O)c2ccccc12)C(=O)N[C@@H](CC(C)C)C(=O)N[C@@H](CCCN=C(N)N)C(=O)N1CCC[C@H]1C(=O)N[C@H](C)C(=O)O,Kd,Rattus norvegicus [1],480 pM
same,EC50,Rattus norvegicus [4],3.4 µg/mL
same,ED100,Rattus norvegicus [5],0.5 µg/kg
same,Relative potency,[2],0.95
CC(=O)N1CCC[C@@H]1C(=O)N[C@H](Cc1ccc(F)cc1)C(=O)N[C@H](Cc1c[nH]c2ccccc12)C(=O)N[C@@H](CO)C(=O)N[C@@H](CCCN=C(N)N)C(=O)N[C@H](Cc1ccc2ccccc2c1)C(=O)N[C@@H](CC(C)C)C(=O)N[C@@H](CCCN=C(N)N)C(=O)N1CCC[C@H]1C(=O)NCC(N)=O,LH level,Rattus norvegicus [6],2.63 ng/mL
same,LH level,Rattus norvegicus [7],12.47 ng/mL
same,LH level,Rattus norvegicus [8],3 ng/mL
same,LH level,Rattus norvegicus [9],4.58 ng/mL
same,LH level,Rattus norvegicus [10],2.78 ng/mL
same,LH level,Rattus norvegicus [11],4.38 ng/mL
same,LH level,Rattus norvegicus [12],6.17 ng/mL
same,LH level,Rattus norvegicus [13],5.68 ng/mL
same,LH level,Rattus norvegicus [14],5.46 ng/mL
same,LH level,Rattus norvegicus [15],9.15 ng/mL
same,LH level,Rattus norvegicus [16],10.25 ng/mL
same,LH level,Rattus norvegicus [17],8.23 ng/mL
same,LH level,Rattus norvegicus [18],2.5 ng/mL
same,LH level,Rattus norvegicus [19],2.74 ng/mL
COc1ccc(C(=O)CC[C@@H](NC(=O)[C@H](Cc2ccc(O)cc2)NC(=O)[C@H](CO)NC(=O)[C@@H](Cc2cccnc2)NC(=O)[C@@H](Cc2ccc(Cl)cc2)NC(=O)[C@H]2CCCN2C(C)=O)C(=O)N(C)[C@@H](CC(C)C)C(=O)N[C@@H](CCCN=C(N)N)C(=O)N2CCC[C@@H]2C(=O)N[C@H](C)C(=O)O)cc1,Kd,Rattus norvegicus [1],310 pM
same,Relative potency,[2],0.13
COc1ccc(C(=O)CC[C@@H](NC(=O)[C@H](CCCN=C(N)N)NC(=O)[C@H](CO)NC(=O)[C@@H](Cc2cccnc2)NC(=O)[C@@H](Cc2ccc(Cl)cc2)NC(=O)[C@@H](Cc2ccc3ccccc3c2)NC(C)=O)C(=O)N(C)[C@@H](CC(C)C)C(=O)N[C@@H](CCCN=C(N)N)C(=O)N2CCC[C@H]2C(=O)N[C@H](C)C(N)=O)cc1,ED100,Rattus norvegicus [20],1 µg/kg
same,EC50,Rattus norvegicus [4],4.6 µg/mL
CC(=O)N[C@H](Cc1ccc2ccccc2c1)C(=O)N[C@H](Cc1ccc(Cl)cc1)C(=O)N[C@H](Cc1cccnc1)C(=O)N[C@@H](CO)C(=O)N[C@@H](CCCN=C(N)N)C(=O)N[C@H](Cc1ccc2ccccc2c1)C(=O)N[C@@H](CC(C)C)C(=O)N[C@@H](CCCN=C(N)N)C(=O)N1CCC[C@@H]1C(=O)N[C@H](C)C(=O)O,ED100,Rattus norvegicus [20],1 µg/kg
same,Kd,Rattus norvegicus [1],5000 pM
same,EC50,Rattus norvegicus [4],1.9 µg/mL
same,Relative potency,[2],0.88
CC(=O)N[C@H](Cc1ccc2ccccc2c1)C(=O)N[C@H](Cc1ccc(Cl)cc1)C(=O)N[C@H](Cc1cccnc1)C(=O)N[C@@H](CO)C(=O)N[C@@H](CCCN=C(N)N)C(=O)N[C@H](Cc1cccnc1)C(=O)N[C@@H](CC(C)C)C(=O)N[C@@H](CCCN=C(N)N)C(=O)N1CCC[C@H]1C(=O)N[C@H](C)C(=O)O,Kd,Rattus norvegicus [1],240 pM
same,ED100,Rattus norvegicus [21],0.5 µg/kg
same,ED100,Rattus norvegicus [22],1 µg/kg
same,EC50,Rattus norvegicus [4],2.9 µg/mL
same,Relative potency,[2],0.91
